By inhibition is commonly meant the share of the control response that was lost under treatment.

The structures appear in SMILES notation. Like-named read-outs stand apart in the source and are kept apart here.

The experiment relates to collagen-induced platelet aggregation. The experiment is described as follows: collagen-induced platelet aggregation after oral dosing (method of Herrmann, et al., 139, 548 (1972)). It counts as in vivo, Guinea pig. To be noted: for inhibition at 25 mg/kg: Cavia porcellus, Platelet, po, oral 25 mg/kg, guinea pig, read-out: Percent Inhibition of Collagen-Induced Platelet Aggregation. As to the method: Exp. Biol. Med., 139, 548 (1972).
The effect of (2'-fluoro-4-biphenyl)acetylene on collagen-induced platelet aggregation was tested by the method of Hermann, et al., Proc. Soc. Exp. Biol. Med., 139, 548 (1972). Guinea pigs weighing 300-400 g, were used. The compound was administered by oral dosing. At time intervals after dosing, blood samples were obtained for assessing platelet function. The collagen used to induce platelet aggregation was prepared from a stock solution obtained by solubilizing Sigma bovine Achilles Tendon with acetic acid. […] Each day 0.4 ml of 1 M aqueous hydroxide was added to a 1.0-ml aliquot of the stock solution, followed by further dilution with saline to yield the appropriate dilutions for use.

On to `C#Cc1ccc(-c2ccccc2F)cc1` [(2'-fluoro-4-biphenyl)acetylene], for which the “duration of activity (in words)” value (20 hours after oral dosing) is “activity still was observed 20 hours after dosing, indicating a long duration of activity”. For the same compound, the inhibition at 25 mg/kg by setting is: (1.5 h, 90 min. after dosing, collagen dilution 1:4) 13%; (1.5 h, 90 min. after dosing, collagen dilution 1:16, significant at P=0.05) 35%; (1.5 h, 90 min. after dosing, collagen dilution 1:32, significant at P=0.01) 81%; (3 h, 3 hrs. after dosing, collagen dilution 1:4, significant at P=0.01) 44%; (3 h, 3 hrs. after dosing, collagen dilution 1:16, significant at P=0.01) 69%; (3 h, 3 hrs. after dosing, collagen dilution 1:32, significant at P=0.01) 86%. For the same compound, the inhibition at 25 mg/kg (6 h, 6 hrs. after dosing, collagen dilution 1:4) is 16%; the inhibition at 25 mg/kg (6 h, 6 hrs. after dosing, collagen dilution 1:16, significant at P=0.05) was found to be 42%; the inhibition at 25 mg/kg (6 h, 6 hrs. after dosing, collagen dilution 1:32, significant at P=0.01) is 49%; the inhibition at 25 mg/kg (20 h, 20 hrs. after dosing, collagen dilution 1:4) is 18%; the inhibition at 25 mg/kg (20 h, 20 hrs. after dosing, collagen dilution 1:16, significant at P=0.01) was 62%; the inhibition at 25 mg/kg (20 h, 20 hrs. after dosing, collagen dilution 1:32, significant at P=0.01) was determined as 95%. Also, the “inhibition of collagen-induced platelet aggregation (in words)” value (after oral dosing) is listed as “active inhibitor of collagen-induced platelet aggregation”. Moreover, under “highest collagen concentration, after oral dosing”, the “inhibition at highest collagen concentration (in words)” value is recorded as “inhibited only at three hours after dosing”. In addition, under “weakest collagen challenge, after oral dosing”, the “inhibition of weakest collagen challenge (in words)” value is “markedly inhibited at all time intervals after oral dosing”.

The record behind these values is US3968251A, “Arylacetylene compounds as antithrombotic agents” (Eli Lilly and Company, priority 1975, dated 1976).
